Here are results for 26 molecules from US20240002391A1, “4-ALKOXYPYRROLO[2,1-F][1,2,4]TRIAZINES AND PREPARATION AND USES THEREOF” (BioSplice Therapeutics, Inc., priority 2022, published 2024).

pIC50: −log10 of the molar value. Some results are limits rather than exact numbers.

In the assay the target is recombinant DYRK1A kinase (Homo sapiens (Human), UniProt Q13627). The experiment in a line: DYRK1A kinase assay (Ser/Thr 18 peptide Z-lyte FRET). It is filed as biochemical. To be noted: DYRK1A kinase activity, Z-lyte Ser/Thr 18 peptide, 15 μM ATP; method text calls the value IC50; read-out: EC50 (the source's name). The essentials:
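Recombinant enzyme (0.25 μg/mL final) was incubated with 15 μM ATP, 4 μM Ser/Thr 18 peptide and compound (11-point 1:3 series from 10 μM) for 1 h at room temperature, in duplicate. Development reagent was added for 1 h, and coumarin/fluorescein emission ratio gave % phosphorylation; IC50 by non-linear regression.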
Regarding `CCN1CC[C@@H](Nc2nc(OC)c3c(-c4ccc5nnn(C)c5c4)ccn3n2)C(F)(F)C1` [Compound 627, (R)—N-(1-Ethyl-3,3-difluoropiperidin-4-yl)-4-methoxy-5-(1-methyl-1H-benzo[d][1,2,3]triazol-6-yl)pyrrolo[2,1-f][1,2,4]triazin-2-amine], the pIC50 was 8.41.

In the case of `COc1nc(N[C@@H]2CCN(C3COC3)CC2(F)F)nn2ccc(-c3ccc4nnn(C)c4c3)c12` [Compound 628, (R)—N-(3,3-Difluoro-1-(oxetan-3-yl)piperidin-4-yl)-4-methoxy-5-(1-methyl-1H-benzo[d][1,2,3]triazol-6-yl)pyrrolo[2,1-f][1,2,4]triazin-2-amine], the pIC50 is 8.20.

In the case of `COc1nc(N[C@H]2CCN(C)C[C@H]2F)nn2cc(F)c(-c3ccc4nnn(C)c4c3)c12` [Compound 630, 6-Fluoro-N-((3R,4S)-3-fluoro-1-methylpiperidin-4-yl)-4-methoxy-5-(1-methyl-1H-benzo[d][1,2,3]triazol-6-yl)pyrrolo[2,1-f][1,2,4]triazin-2-amine], the pIC50 was 8.31.

On to `CCn1nnc2ccc(-c3ccn4nc(N[C@H]5CCN(C6COC6)C[C@H]5F)nc(OC)c34)cc21` [Compound 646, 5-(1-Ethyl-1H-benzo[d][1,2,3]triazol-6-yl)-N-((3R,4S)-3-fluoro-1-(oxetan-3-yl)piperidin-4-yl)-4-methoxypyrrolo[2,1-f][1,2,4]triazin-2-amine], for which the pIC50 was 8.47.

`COc1nc(N[C@@H]2CN(C(C)=O)C[C@@H]2F)nn2ccc(-c3ccc4nnn(CCF)c4c3)c12` [Compound 660, 1-((3S,4R)-3-Fluoro-4-((5-(1-(2-fluoroethyl)-1H-benzo[d][1,2,3]triazol-6-yl)-4-methoxypyrrolo[2,1-f][1,2,4]triazin-2-yl)amino)pyrrolidin-1-yl)ethan-1-one]: the pIC50 is over 9.70.

For the molecule `COc1nc(N[C@H]2CCN(C(C)=O)C[C@H]2F)nn2ccc(-c3ccc4nnn(CCF)c4c3)c12` [Compound 664, 1-((3R,4S)-3-Fluoro-4-((5-(1-(2-fluoroethyl)-1H-benzo[d][1,2,3]triazol-6-yl)-4-methoxypyrrolo[2,1-f][1,2,4]triazin-2-yl)amino)piperidin-1-yl)ethan-1-one], the pIC50 is 8.80.

Take `COc1nc(N[C@H]2CCN(C3COC3)C[C@H]2F)nn2ccc(-c3ccc4nnn(CCF)c4c3)c12` [Compound 666, N-((3R,4S)-3-Fluoro-1-(oxetan-3-yl)piperidin-4-yl)-5-(1-(2-fluoroethyl)-1H-benzo[d][1,2,3]triazol-6-yl)-4-methoxypyrrolo[2,1-f][1,2,4]triazin-2-amine]: the pIC50 is 8.96.

For `COc1nc(N[C@@H]2CCN(C(C)=O)CC2(F)F)nn2ccc(-c3ccc4nnn(CCF)c4c3)c12` [Compound 669, (R)-1-(3,3-Difluoro-4-((5-(1-(2-fluoroethyl)-1H-benzo[d][1,2,3]triazol-6-yl)-4-methoxypyrrolo[2,1-f][1,2,4]triazin-2-yl)amino)piperidin-1-yl)ethan-1-one], the pIC50 is 8.80.

As for `COc1nc(N[C@@H]2CCN(C3COC3)CC2(F)F)nn2ccc(-c3ccc4nnn(CCF)c4c3)c12` [Compound 670, (R)—N-(3,3-Difluoro-1-(oxetan-3-yl)piperidin-4-yl)-5-(1-(2-fluoroethyl)-1H-benzo[d][1,2,3]triazol-6-yl)-4-methoxypyrrolo[2,1-f][1,2,4]triazin-2-amine], the pIC50 was 9.10.

`COc1nc(N[C@H]2CC[C@](C)(O)CC2)nn2ccc(-c3ccc4nnn(/C=C/F)c4c3)c12` [Compound 672, (1r,4r)-4-((5-(1-((E)-2-fluorovinyl)-1H-benzo[d][1,2,3]triazol-6-yl)-4-methoxypyrrolo[2,1-f][1,2,4]triazin-2-yl)amino)-1-methylcyclohexan-1-ol]: the pIC50 was 8.23.

With `COc1nc(NC2CCC(=O)N(C)C2)nn2ccc(-c3ccc4nnn(/C=C/F)c4c3)c12` (centres unmarked) [Compound 673, (E)-5-((5-(1-(2-Fluorovinyl)-1H-benzo[d][1,2,3]triazol-6-yl)-4-methoxypyrrolo[2,1-f][1,2,4]triazin-2-yl)amino)-1-methylpiperidin-2-one], the pIC50 is 8.28.

On to `COc1nc(N[C@H]2CC[C@](C)(O)CC2)nn2ccc(-c3ccc4nnn(C(C)C)c4c3)c12` [Compound 681, (1r,4r)-4-((5-(1-Isopropyl-1H-benzo[d][1,2,3]triazol-6-yl)-4-methoxypyrrolo[2,1-f][1,2,4]triazin-2-yl)amino)-1-methylcyclohexan-1-ol], for which the pIC50 was 8.72.

On to `COc1nc(N[C@H]2CCN(C(C)=O)C[C@H]2F)nn2ccc(-c3ccc4nnn(C(C)C)c4c3)c12` [Compound 686, 1-((3R,4S)-3-Fluoro-4-((5-(1-isopropyl-1H-benzo[d][1,2,3]triazol-6-yl)-4-methoxypyrrolo[2,1-f][1,2,4]triazin-2-yl)amino)piperidin-1-yl)ethan-1-one], for which the pIC50 is 8.47.

For the molecule `COc1nc(N[C@H]2CCN(C3COC3)C[C@H]2F)nn2ccc(-c3ccc4nnn(C(C)C)c4c3)c12` [Compound 688, N-((3R,4S)-3-fluoro-1-(oxetan-3-yl)piperidin-4-yl)-5-(1-isopropyl-1H-benzo[d][1,2,3]triazol-6-yl)-4-methoxypyrrolo[2,1-f][1,2,4]triazin-2-amine], the pIC50 is 8.64.

For the molecule `COc1nc(N[C@H]2CCN(C3(C#N)COC3)C[C@H]2F)nn2ccc(-c3ccc4nnn(C(C)C)c4c3)c12` [Compound 690, 3-((3R,4S)-3-fluoro-4-((5-(1-isopropyl-1H-benzo[d][1,2,3]triazol-6-yl)-4-methoxypyrrolo[2,1-f][1,2,4]triazin-2-yl)amino)piperidin-1-yl)oxetane-3-carbonitrile], the pIC50 is 8.11.

As for `COc1nc(N[C@@H]2CCN(C(C)=O)CC2(F)F)nn2ccc(-c3ccc4nnn(C(C)C)c4c3)c12` [Compound 691, (R)-1-(3,3-Difluoro-4-((5-(1-isopropyl-1H-benzo[d][1,2,3]triazol-6-yl)-4-methoxypyrrolo[2,1-f][1,2,4]triazin-2-yl)amino)piperidin-1-yl)ethan-1-one], the pIC50 was 8.85.

With `COc1nc(NCC(C)(C)C#N)nn2ccc(-c3ccc4nnn(CC(F)F)c4c3)c12` [Compound 695, 3-((5-(1-(2,2-Difluoroethyl)-1H-benzo[d][1,2,3]triazol-6-yl)-4-methoxypyrrolo[2,1-f][1,2,4]triazin-2-yl)amino)-2,2-dimethylpropanenitrile], the pIC50 is 8.89.

On to `COc1nc(NCC(C)(C)O)nn2ccc(-c3ccc4nnn(CC(F)F)c4c3)c12` [Compound 696, 1-((5-(1-(2,2-Difluoroethyl)-1H-benzo[d][1,2,3]triazol-6-yl)-4-methoxypyrrolo[2,1-f][1,2,4]triazin-2-yl)amino)-2-methylpropan-2-ol], for which the pIC50 was 8.89.

For the molecule `COc1nc(N[C@H]2C[C@@H](OCCO)C2)nn2ccc(-c3ccc4nnn(CC(F)F)c4c3)c12` [Compound 699, 2-(cis-3-((5-(1-(2,2-Difluoroethyl)-1H-benzo[d][1,2,3]triazol-6-yl)-4-methoxypyrrolo[2,1-f][1,2,4]triazin-2-yl)amino)cyclobutoxy)ethan-1-ol], the pIC50 was 8.85.

On to `COc1nc(N[C@H]2C[C@@](C)(NC(C)=O)C2)nn2ccc(-c3ccc4nnn(CC(F)F)c4c3)c12` [Compound 702, N-((1s,3s)-3-((5-(1-(2,2-Difluoroethyl)-1H-benzo[d][1,2,3]triazol-6-yl)-4-methoxypyrrolo[2,1-f][1,2,4]triazin-2-yl)amino)-1-methylcyclobutyl)acetamide], for which the pIC50 is 8.92.

Consider `COc1nc(N[C@H]2C[C@@](C)(O)C2)nn2ccc(-c3ccc4nnn(CC(F)F)c4c3)c12` [Compound 710, (1s,3s)-3-((5-(1-(2,2-Difluoroethyl)-1H-benzo[d][1,2,3]triazol-6-yl)-4-methoxypyrrolo[2,1-f][1,2,4]triazin-2-yl)amino)-1-methylcyclobutan-1-ol], for which the pIC50 was 9.05.

In the case of `COc1nc(N[C@H]2C[C@](C)(O)C2)nn2ccc(-c3ccc4nnn(CC(F)F)c4c3)c12` [Compound 711, (1r,3r)-3-((5-(1-(2,2-Difluoroethyl)-1H-benzo[d][1,2,3]triazol-6-yl)-4-methoxypyrrolo[2,1-f][1,2,4]triazin-2-yl)amino)-1-methylcyclobutan-1-ol], the pIC50 was 9.30.

On to `COc1nc(N[C@H]2CC[C@@H](NC(C)=O)CC2)nn2ccc(-c3ccc4nnn(CC(F)F)c4c3)c12` [Compound 717, N-(cis-4-((5-(1-(2,2-Difluoroethyl)-1H-benzo[d][1,2,3]triazol-6-yl)-4-methoxypyrrolo[2,1-f][1,2,4]triazin-2-yl)amino)cyclohexyl)acetamide], for which the pIC50 is 8.64.

Regarding `COc1nc(N[C@H]2CC[C@@H](O)CC2)nn2ccc(-c3ccc4nnn(CC(F)F)c4c3)c12` [Compound 718, cis-4-((5-(1-(2,2-Difluoroethyl)-1H-benzo[d][1,2,3]triazol-6-yl)-4-methoxypyrrolo[2,1-f][1,2,4]triazin-2-yl)amino)cyclohexan-1-ol], the pIC50 is 9.30.

Regarding `COc1nc(N[C@H]2CC[C@H](O)CC2)nn2ccc(-c3ccc4nnn(CC(F)F)c4c3)c12` [Compound 719, trans-4-((5-(1-(2,2-Difluoroethyl)-1H-benzo[d][1,2,3]triazol-6-yl)-4-methoxypyrrolo[2,1-f][1,2,4]triazin-2-yl)amino)cyclohexan-1-ol], the pIC50 is 9.52.

On to `COc1nc(NC2CCC(C)(C#N)CC2)nn2ccc(-c3ccc4nnn(CC(F)F)c4c3)c12` (centres unmarked) [Compound 721, 4-((5-(1-(2,2-Difluoroethyl)-1H-benzo[d][1,2,3]triazol-6-yl)-4-methoxypyrrolo[2,1-f][1,2,4]triazin-2-yl)amino)-1-methylcyclohexane-1-carbonitrile], for which the pIC50 was 8.24.
